Test results as given in patent US7198811B2, “Compositions for the preservation of fruits and vegetables” (University of Guelph, priority 2002, dated 2007).

Assays:
[1] = system: Vista Cherries; assay: Postharvest dips of compositions or individual components on Vista cherries; further: dipped 2.5 min; format: in vivo; conditions: dipped […], concentration as printed per treatment; stored 4° C. in air
Method: Samples were allowed to dry at room temperature and stored at 4° C. in air. Evaluations were conducted two weeks and four weeks after treatment. The results given are mean of twenty sample values.

[2] = system: Cortland apples; assay: Superficial scald and softening in Cortland apples versus duration of dip treatment; format: in vivo; conditions: 1 minute, 1500 ppm; CA storage 9 months
Method: The effects of antioxidant formulation of the present invention, and subgroups of its chemical components on post harvest qualities of Cortland apples were investigated.
The effect of the duration of dip treatment of Cortland apples using the antioxidant formulation (Example 1, Solution B) is presented in Table 3C. Ten ml of the formulation of was diluted to a liter. […] Twenty randomly selected apples from each of the treatments were removed and kept at room temperature for a week before evaluations were conducted.
Ten ml of the concentrate of the EAM formulation was diluted to one liter to form the final solution. […] Two bushels of apples were dipped in 40 liters of solution for each time period and subjected to controlled atmosphere storage as defined above. Apples were brought out after 9 months of storage. Twenty apples from each treatment were picked randomly from two independent sets, and left at room temperature for one week before evaluating for scald and softening.
Ten ml of the concentrate of the AOX formulation was diluted to one liter to form the final solution. […] Two bushels of apples were dipped in 40 liters of solution for each time period and subjected to controlled atmosphere storage as defined above. Apples were brought out after 9 months of storage. […]

Compound: O=C1O[C@H]([C@@H](O)CO)C(O)=C1O [Ascorbic Acid]
- Firmness (kg) 2 weeks [1]: 1.2 kg
- Firmness (kg) 4 weeks [1]: 1.12 kg

Compound: c1ccc(CNc2ncnc3nc[nH]c23)cc1 [BA, benzyladenine]
- Firmness (kg) 2 weeks [1]: 1.24 kg
- Firmness (kg) 4 weeks [1]: 1.14 kg
- Soluble Solids (%) 2 weeks [1]: 13.8%

Compound: [Ca+2].[Cl-].[Cl-] [CaCl2, calcium chloride]
- Firmness (kg) 2 weeks [1]: 1.26 kg
- Firmness (kg) 4 weeks [1]: 1.09 kg

Compound: c1ccc(Nc2ccccc2)cc1 [DPA, diphenylamine]
- Softening % [2]: 25%
- Superficial scald % [2]: 35%

Compound: CC(C)=CCC/C(C)=C/CO [Geraniol]
- Firmness (kg) 2 weeks [1]: 1.01 kg
- Firmness (kg) 4 weeks [1]: 1.24 kg
- Soluble Solids (%) 4 weeks [1]: 17%

Compound: CC(=O)OC/C=C(\C)CCC=C(C)C [Geranyl Acetate]
- Firmness (kg) 2 weeks [1]: 1.21 kg
- Firmness (kg) 4 weeks [1]: 1.12 kg
- Soluble Solids (%) 2 weeks [1]: 17%

Compound: CCCCCC=O [Hexanal]
- Firmness (kg) 2 weeks [1]: 1.24 kg
- Firmness (kg) 4 weeks [1]: 1.16 kg

Compound: Cc1c(C)c2c(c(C)c1O)CC[C@@](C)(CCC[C@H](C)CCC[C@H](C)CCCC(C)C)O2 [α-tocopherol]
- Firmness (kg) 2 weeks [1]: 1.21 kg
- Firmness (kg) 4 weeks [1]: 1.12 kg
- Soluble Solids (%) 4 weeks [1]: 16.7%
